Assay results: US8822690B2, “High transmissional yellow dye for LCD and synthetic method thereof” (LG Display Co., Ltd., priority 2012, dated 2014)
Where two headings read alike, the source gives them in different places.

Tests used:
Format in all cases: physicochemical
[1] = qualitative solubility assessment of the synthesized quinophthalone series dye; conditions: organic solvent or mixture
Source text: In below Table 1, there were qualitative solubility assessment results of the synthesized quinophthalone series dye. […] This means that new design to improve solubility is successful. It was shown that QP3 improving intermolecular steric hindrance by bulk-sized alkyl residue and QP4 increasing affinity to the process solvent, PGMEA, by introducing carboxylate functional group increased its solubility successfully than QP1.

[2] = solubility to PGMEA in primary color filter application property assessment; conditions: for 1% solubility of dye to PGMEA: 1% in PGMEA
[3] = thermal resistance by Thermo Gravimetric Analyzer (TGA); conditions: high temperature zone over 300° C.
Procedure: Through Thermo Gravimetric Analyzer (TGA), Thermogravimetric Analyzer 2050 (TA instruments), thermal resistance of the synthesized dye was measured (FIG. 3). For the thermal resistance test, change of mass reduction rate (w %) was measured by passing through isothermal section at 220° C. for 30 min, raising the temperature to 30° C.˜400° C. in 10° C./min. In order to apply it as a dye material for LCD color filter, the mass reduction in isothermal zone must be less than 5%. […] In case of QP3 and QP4, it was analyzed that functional groups introduced to improve the solubility gave somewhat reciprocal effects to the thermal resistance of dye. […] It seems that the weight loss is caused by effects of solvents or impurities rather than thermal resistance of dye itself.

[4] = spectroscopic change by temperature and number of PB (Δ Eab)
Procedure: Color simulation was performed according to the condition described in FIG. 15.

[5] = UV-vis absorption spectroscopic analysis of dye; conditions: slope of absorption reduction just prior to 500 nm, absorption after 500 nm
Source text: As QP3 and QP4 increased the molar extinction coefficient further in addition to somewhat bathochromic-shift of λmax, they show very strong and sharp absorption peaks prior to 500 nm. This is very ideal absorption peak for being used as a yellow compensation dye to correct the major green dye.

[6] = process solvent PGMEA, read-out: solubility in PGMEA
[7] = solvent CH2Cl2, read-out: solubility in CH2Cl2
[8] = 180° C., first value of PB sequence
[9] = 180° C., second value of PB sequence
[10] = 180° C., third value of PB sequence
[11] = 200° C., first value of PB sequence
[12] = 200° C., second value of PB sequence
[13] = 200° C., third value of PB sequence
[14] = 230° C., first value of PB sequence
[15] = 230° C., second value of PB sequence
[16] = 230° C., third value of PB sequence

solubility [1, 6] [mg/mL] | solubility [1, 7] [mg/mL] | 1% solubility of dye to PGMEA [2] | solubility to PGMEA [2] | thermal resistance in high temperature zone [3] | spectroscopic change by # of PB (Δ Eab) [4, 8] | spectroscopic change by # of PB (Δ Eab) [4, 9] | spectroscopic change by # of PB (Δ Eab) [4, 10] | spectroscopic change by # of PB (Δ Eab) [4, 11] | spectroscopic change by # of PB (Δ Eab) [4, 12] | spectroscopic change by # of PB (Δ Eab) [4, 13] | spectroscopic change by # of PB (Δ Eab) [4, 14] | spectroscopic change by # of PB (Δ Eab) [4, 15] | spectroscopic change by # of PB (Δ Eab) [4, 16] | color property (UV-vis absorption peak) [5] | Structure (SMILES)
> 5 | > 5 | – | – | – | – | – | – | – | – | – | – | – | – | – | O=C1c2ccccc2C(=O)C1c1ccc2cccc(N3C(=O)c4ccccc4C3=O)c2n1 [QP1]
> 0.5 | > 0.5 | – | – | – | – | – | – | – | – | – | – | – | – | – | O=C1c2cccc3cccc(c23)C(=O)N1c1cccc2c1NC(=c1c(=O)c3cccc4cccc(c1=O)c43)C=C2 [QP2]
> 50 | > 50 | satisfactory level | 5-10% | the best thermal resistance property | 0.36 | 1.84 | 1.98 | 0.56 | 2.74 | 2.77 | 2.94 | 9.3 | 13.4 | the most excellent color property | CC(C)(C)c1ccc2c(c1)C(=O)/C(=C1\C=Cc3cccc(N4C(=O)c5ccc(C(C)(C)C)cc5C4=O)c3N1)C2=O [QP3]
> 50 | > 50 | satisfactory level | 5-7% | – | 1.11 | 1.42 | 1.59 | 1.62 | 2.04 | 2.37 | 3.51 | 6.3 | 9.36 | – | CCOC(=O)c1ccc2c(c1)C(=O)/C(=C1\C=Cc3cccc(N4C(=O)c5ccc(C(=O)OCC)cc5C4=O)c3N1)C2=O [QP4]
